Literature values as cited in patent US20070292469A1, “Antimicrobial composition” (priority 2005, published 2007).

System: wide range of microorganisms
Details: literature statement (Block, Disinfection, Sterilization, and Preservation 4th ed. 1991)

Substance	antimicrobial activity
monoethanolamines	lack dramatic antimicrobial activity
α-4-[1-tris(2-hydroxyethyl) ammonium-2-butenyl] poly[1-dimethylammonium-2-butenyl]-ω-tris(2-hydroxyethyl)ammonium chloride [polyquaternium 1]	significant antimicrobial activity
